Columns and labels:
Assay in all cases: relative viability (nuclei count vs DMSO), 5 days (fraction); higher = more cells survive
[1] = test system: PC-14
Method in brief: (§1)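 Relative viability equals treated-well nuclei counts divided by vehicle-well nuclei counts. Counts came from 4× images of lung cancer cell lines grown in 1536-well plates for 5 days after pin-tool dosing on the day after seeding. Dosing used one drug alone or a fixed anchor-drug dose plus five library-drug doses (not always all listed) in √10 steps, and values are medians of duplicate plates.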

[2] = test system: HCC-366
Method in brief: as §1

[3] = test system: NCI-H2228
Method in brief: as §1

[4] = test system: NCI-H2347
Method in brief: as §1

[5] = test system: SW 1573
Method in brief: as §1

[6] = test system: NCI-H596
Method in brief: as §1

[7] = test system: EBC-1
Method in brief: as §1

[8] = test system: SK-MES-1
Method in brief: as §1

[9] = test system: LC-2-ad
Method in brief: as §1

[10] = test system: HOP-62
Method in brief: as §1

[11] = test system: NCI-H2085
Method in brief: as §1

[12] = test system: LK-2
Method in brief: as §1

[13] = test system: RERF-LC-KJ
Method in brief: as §1

[14] = test system: NCI-H2405
Method in brief: as §1

[15] = test system: HCC-78
Method in brief: as §1

[16] = test system: EMC-BAC-2
Method in brief: as §1

[17] = test system: NCI-H2009
Method in brief: as §1

[18] = test system: NCI-H1993
Method in brief: as §1

[19] = test system: NCI-H1734
Method in brief: as §1

[20] = test system: NCI-H1355
Method in brief: as §1

[21] = test system: CAL-12T
Method in brief: as §1

[22] = test system: Calu-6
Method in brief: as §1

[23] = test system: NCI-H3122
Method in brief: as §1

Structure (SMILES): CCCCCCCCCCCC1=C(O)C(=O)C=C(O)C1=O [Embelin] + Cc1nc(NC(=O)N2CCC[C@H]2C(N)=O)sc1-c1ccnc(C(C)(C)C(F)(F)F)c1 [Alpelisib] (partner 2 µM)
- relative viability ([1]; first compound 0.08 µM): 0.9
- relative viability ([1]; first compound 0.8 µM): 0.973
- relative viability ([1]; first compound 2.53 µM): 0.976
- relative viability ([1]; first compound 8 µM): 0.959
- relative viability ([2]; first compound 0.08 µM): 0.411
- relative viability ([2]; first compound 0.8 µM): 0.418
- relative viability ([2]; first compound 2.53 µM): 0.412
- relative viability ([2]; first compound 8 µM): 0.427
- relative viability ([3]; first compound 0.08 µM): 0.705
- relative viability ([3]; first compound 0.8 µM): 0.781
- relative viability ([3]; first compound 2.53 µM): 0.793
- relative viability ([3]; first compound 8 µM): 0.729
- relative viability ([4]; first compound 0.08 µM): 1.05
- relative viability ([4]; first compound 0.8 µM): 1.16
- relative viability ([4]; first compound 2.53 µM): 1.11
- relative viability ([4]; first compound 8 µM): 1.16
- relative viability ([5]; first compound 0.08 µM): 0.815
- relative viability ([5]; first compound 0.8 µM): 0.966
- relative viability ([5]; first compound 2.53 µM): 0.786
- relative viability ([5]; first compound 8 µM): 0.804
- relative viability ([6]; first compound 0.08 µM): 0.487
- relative viability ([6]; first compound 0.8 µM): 0.522
- relative viability ([6]; first compound 2.53 µM): 0.482
- relative viability ([6]; first compound 8 µM): 0.581
- relative viability ([7]; first compound 0.08 µM): 0.93
- relative viability ([7]; first compound 0.8 µM): 1
- relative viability ([7]; first compound 2.53 µM): 0.914
- relative viability ([7]; first compound 8 µM): 0.732
- relative viability ([8]; first compound 0.08 µM): 0.902
- relative viability ([8]; first compound 0.8 µM): 1.15
- relative viability ([8]; first compound 2.53 µM): 0.96
- relative viability ([8]; first compound 8 µM): 0.876
- relative viability ([9]; first compound 0.08 µM): 0.891
- relative viability ([9]; first compound 0.8 µM): 0.913
- relative viability ([9]; first compound 2.53 µM): 0.716
- relative viability ([9]; first compound 8 µM): 0.892
- relative viability ([10]; first compound 0.08 µM): 1.04
- relative viability ([10]; first compound 0.8 µM): 0.918
- relative viability ([10]; first compound 2.53 µM): 1.41
- relative viability ([10]; first compound 8 µM): 0.796
- relative viability ([11]; first compound 0.08 µM): 0.944
- relative viability ([11]; first compound 0.8 µM): 0.999
- relative viability ([11]; first compound 2.53 µM): 1.11
- relative viability ([11]; first compound 8 µM): 0.999
- relative viability ([12]; first compound 0.08 µM): 1.09
- relative viability ([12]; first compound 0.8 µM): 1.5
- relative viability ([12]; first compound 2.53 µM): 1.09
- relative viability ([12]; first compound 8 µM): 0.99
- relative viability ([13]; first compound 0.08 µM): 0.856
- relative viability ([13]; first compound 0.8 µM): 0.815
- relative viability ([13]; first compound 2.53 µM): 1.07
- relative viability ([13]; first compound 8 µM): 0.865
- relative viability ([14]; first compound 0.08 µM): 0.853
- relative viability ([14]; first compound 0.8 µM): 1.11
- relative viability ([14]; first compound 2.53 µM): 0.774
- relative viability ([14]; first compound 8 µM): 0.793
- relative viability ([15]; first compound 0.08 µM): 0.329
- relative viability ([15]; first compound 0.8 µM): 0.392
- relative viability ([15]; first compound 2.53 µM): 0.388
- relative viability ([15]; first compound 8 µM): 0.307
- relative viability ([16]; first compound 0.08 µM): 0.75
- relative viability ([16]; first compound 0.8 µM): 0.736
- relative viability ([16]; first compound 2.53 µM): 0.792
- relative viability ([16]; first compound 8 µM): 0.825
- relative viability ([17]; first compound 0.08 µM): 1.26
- relative viability ([17]; first compound 0.8 µM): 1.27
- relative viability ([17]; first compound 2.53 µM): 1.18
- relative viability ([17]; first compound 8 µM): 1.16
- relative viability ([18]; first compound 0.08 µM): 0.753
- relative viability ([18]; first compound 0.8 µM): 0.755
- relative viability ([18]; first compound 2.53 µM): 0.649
- relative viability ([18]; first compound 8 µM): 0.658
- relative viability ([19]; first compound 0.08 µM): 0.758
- relative viability ([19]; first compound 0.8 µM): 0.726
- relative viability ([19]; first compound 2.53 µM): 0.745
- relative viability ([19]; first compound 8 µM): 0.741
- relative viability ([20]; first compound 0.08 µM): 0.847
- relative viability ([20]; first compound 0.8 µM): 0.897
- relative viability ([20]; first compound 2.53 µM): 0.916
- relative viability ([20]; first compound 8 µM): 0.771
- relative viability ([21]; first compound 0.08 µM): 1.24
- relative viability ([21]; first compound 0.8 µM): 1.49
- relative viability ([21]; first compound 2.53 µM): 1.31
- relative viability ([21]; first compound 8 µM): 1.33
- relative viability ([22]; first compound 0.08 µM): 0.983
- relative viability ([22]; first compound 0.8 µM): 0.935
- relative viability ([22]; first compound 2.53 µM): 0.978
- relative viability ([22]; first compound 8 µM): 0.893
- relative viability ([23]; first compound 0.08 µM): 0.746
- relative viability ([23]; first compound 0.8 µM): 0.697
- relative viability ([23]; first compound 2.53 µM): 0.728
- relative viability ([23]; first compound 8 µM): 0.737
